Measured values from patent US12258327B2, “5-membered heteroaryl-containing aminopyridine compounds as EGFR inhibitors” (YUHAN CORPORATION, priority 2021, dated 2025).
Read-outs that look alike come from different tables or passages of the source.

Tests used:
EGFR wildtype (WT) = EGFR wildtype (WT) (Homo sapiens, UniProt P00533); assay: Biochemical EGFR kinase assay (Lance Ultra TR-FRET), wildtype
Procedure, shortened: (§1)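 In this biochemical assay, phosphorylation after a one-hour room-temperature reaction was detected with europium-labelled anti-phosphopeptide antibody at 2 nM final concentration.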

EGFR L858R/C797S = EGFR L858R/C797S (Homo sapiens, UniProt P00533, C797S/L858R); assay: Biochemical EGFR kinase assay (Lance Ultra TR-FRET), double mutant L858R/C797S
Chain of EGFR L858R/C797S (P00533 25-1210 C797S/L858R): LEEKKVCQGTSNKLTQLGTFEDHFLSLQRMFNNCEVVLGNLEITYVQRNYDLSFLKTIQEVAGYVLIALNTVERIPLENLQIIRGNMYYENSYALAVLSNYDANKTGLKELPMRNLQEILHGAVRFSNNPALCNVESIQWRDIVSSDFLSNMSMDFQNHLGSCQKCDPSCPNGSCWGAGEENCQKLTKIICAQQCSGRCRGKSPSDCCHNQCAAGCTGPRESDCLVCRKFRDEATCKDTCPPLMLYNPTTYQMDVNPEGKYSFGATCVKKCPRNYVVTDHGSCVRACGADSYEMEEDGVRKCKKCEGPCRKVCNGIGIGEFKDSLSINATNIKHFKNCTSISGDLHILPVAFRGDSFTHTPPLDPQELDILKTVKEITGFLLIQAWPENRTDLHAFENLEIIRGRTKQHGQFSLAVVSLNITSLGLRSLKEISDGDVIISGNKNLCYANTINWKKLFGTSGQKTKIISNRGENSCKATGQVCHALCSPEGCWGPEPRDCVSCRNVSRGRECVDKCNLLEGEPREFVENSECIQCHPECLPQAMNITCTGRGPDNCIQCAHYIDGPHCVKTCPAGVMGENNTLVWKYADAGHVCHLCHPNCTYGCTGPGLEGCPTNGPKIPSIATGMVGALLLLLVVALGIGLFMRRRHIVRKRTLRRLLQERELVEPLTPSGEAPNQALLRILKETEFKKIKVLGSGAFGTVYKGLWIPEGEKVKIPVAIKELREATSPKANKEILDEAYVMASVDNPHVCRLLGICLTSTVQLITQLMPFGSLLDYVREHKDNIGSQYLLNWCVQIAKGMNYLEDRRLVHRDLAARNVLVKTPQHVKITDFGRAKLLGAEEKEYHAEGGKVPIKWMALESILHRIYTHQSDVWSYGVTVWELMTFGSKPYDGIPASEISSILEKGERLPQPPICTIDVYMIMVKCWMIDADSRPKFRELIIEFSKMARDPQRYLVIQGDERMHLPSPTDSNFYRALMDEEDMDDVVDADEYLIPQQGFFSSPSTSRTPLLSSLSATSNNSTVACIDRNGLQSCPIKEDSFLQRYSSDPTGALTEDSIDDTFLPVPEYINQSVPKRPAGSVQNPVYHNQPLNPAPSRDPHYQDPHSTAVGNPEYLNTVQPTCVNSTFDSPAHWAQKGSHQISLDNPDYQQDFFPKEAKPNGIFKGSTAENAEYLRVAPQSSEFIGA
Procedure, shortened: as §1

EGFR del19/C797S = EGFR del19/C797S (Homo sapiens, UniProt P00533, C797S/DEL746-750); assay: Biochemical EGFR kinase assay (Lance Ultra TR-FRET), double mutant del19/C797S
Chain of EGFR del19/C797S (P00533 with tags, fused parts or gaps DEL746-750/C797S): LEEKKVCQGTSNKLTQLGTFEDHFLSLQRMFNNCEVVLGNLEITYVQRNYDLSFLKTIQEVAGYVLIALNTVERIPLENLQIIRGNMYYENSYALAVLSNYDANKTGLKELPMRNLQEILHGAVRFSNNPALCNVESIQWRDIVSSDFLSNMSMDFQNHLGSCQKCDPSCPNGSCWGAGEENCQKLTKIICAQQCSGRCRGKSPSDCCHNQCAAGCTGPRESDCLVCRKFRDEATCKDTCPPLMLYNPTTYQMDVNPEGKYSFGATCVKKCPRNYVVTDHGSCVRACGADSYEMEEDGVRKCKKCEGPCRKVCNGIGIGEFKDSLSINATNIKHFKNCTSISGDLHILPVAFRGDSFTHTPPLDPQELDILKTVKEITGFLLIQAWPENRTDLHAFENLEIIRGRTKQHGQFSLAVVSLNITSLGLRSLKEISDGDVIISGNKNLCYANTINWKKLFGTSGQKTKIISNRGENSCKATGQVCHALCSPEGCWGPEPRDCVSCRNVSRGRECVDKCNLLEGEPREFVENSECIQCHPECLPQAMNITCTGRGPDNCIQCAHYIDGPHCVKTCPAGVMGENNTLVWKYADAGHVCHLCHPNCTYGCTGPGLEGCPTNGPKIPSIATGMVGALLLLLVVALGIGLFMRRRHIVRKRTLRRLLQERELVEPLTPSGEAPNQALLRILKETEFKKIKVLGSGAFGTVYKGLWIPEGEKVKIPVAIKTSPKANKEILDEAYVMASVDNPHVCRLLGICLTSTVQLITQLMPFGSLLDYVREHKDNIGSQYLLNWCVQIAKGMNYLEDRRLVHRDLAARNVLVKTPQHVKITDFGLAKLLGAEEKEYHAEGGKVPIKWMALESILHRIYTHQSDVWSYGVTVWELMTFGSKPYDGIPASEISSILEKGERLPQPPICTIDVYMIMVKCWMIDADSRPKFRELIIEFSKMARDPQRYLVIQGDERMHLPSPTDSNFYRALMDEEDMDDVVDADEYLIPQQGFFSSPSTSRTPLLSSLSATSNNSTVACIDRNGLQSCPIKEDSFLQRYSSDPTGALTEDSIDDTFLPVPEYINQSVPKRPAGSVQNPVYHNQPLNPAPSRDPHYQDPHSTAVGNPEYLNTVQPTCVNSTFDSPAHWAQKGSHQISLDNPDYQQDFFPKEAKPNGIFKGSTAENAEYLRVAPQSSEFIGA
Procedure, shortened: as §1

EGFR del19/T790M/C797S = EGFR del19/T790M/C797S (Homo sapiens, UniProt P00533, C797S/DEL746-750/T790M); assay: Biochemical EGFR kinase assay (Lance Ultra TR-FRET), triple mutant del19/T790M/C797S
Procedure, shortened: as §1

EGFR L858R/T790M/C797S = EGFR L858R/T790M/C797S (Homo sapiens, UniProt P00533, C797S/L858R/T790M); assay: Biochemical EGFR kinase assay (Lance Ultra TR-FRET), triple mutant L858R/T790M/C797S
Chain of EGFR L858R/T790M/C797S (P00533 25-1210 T790M/C797S/L858R): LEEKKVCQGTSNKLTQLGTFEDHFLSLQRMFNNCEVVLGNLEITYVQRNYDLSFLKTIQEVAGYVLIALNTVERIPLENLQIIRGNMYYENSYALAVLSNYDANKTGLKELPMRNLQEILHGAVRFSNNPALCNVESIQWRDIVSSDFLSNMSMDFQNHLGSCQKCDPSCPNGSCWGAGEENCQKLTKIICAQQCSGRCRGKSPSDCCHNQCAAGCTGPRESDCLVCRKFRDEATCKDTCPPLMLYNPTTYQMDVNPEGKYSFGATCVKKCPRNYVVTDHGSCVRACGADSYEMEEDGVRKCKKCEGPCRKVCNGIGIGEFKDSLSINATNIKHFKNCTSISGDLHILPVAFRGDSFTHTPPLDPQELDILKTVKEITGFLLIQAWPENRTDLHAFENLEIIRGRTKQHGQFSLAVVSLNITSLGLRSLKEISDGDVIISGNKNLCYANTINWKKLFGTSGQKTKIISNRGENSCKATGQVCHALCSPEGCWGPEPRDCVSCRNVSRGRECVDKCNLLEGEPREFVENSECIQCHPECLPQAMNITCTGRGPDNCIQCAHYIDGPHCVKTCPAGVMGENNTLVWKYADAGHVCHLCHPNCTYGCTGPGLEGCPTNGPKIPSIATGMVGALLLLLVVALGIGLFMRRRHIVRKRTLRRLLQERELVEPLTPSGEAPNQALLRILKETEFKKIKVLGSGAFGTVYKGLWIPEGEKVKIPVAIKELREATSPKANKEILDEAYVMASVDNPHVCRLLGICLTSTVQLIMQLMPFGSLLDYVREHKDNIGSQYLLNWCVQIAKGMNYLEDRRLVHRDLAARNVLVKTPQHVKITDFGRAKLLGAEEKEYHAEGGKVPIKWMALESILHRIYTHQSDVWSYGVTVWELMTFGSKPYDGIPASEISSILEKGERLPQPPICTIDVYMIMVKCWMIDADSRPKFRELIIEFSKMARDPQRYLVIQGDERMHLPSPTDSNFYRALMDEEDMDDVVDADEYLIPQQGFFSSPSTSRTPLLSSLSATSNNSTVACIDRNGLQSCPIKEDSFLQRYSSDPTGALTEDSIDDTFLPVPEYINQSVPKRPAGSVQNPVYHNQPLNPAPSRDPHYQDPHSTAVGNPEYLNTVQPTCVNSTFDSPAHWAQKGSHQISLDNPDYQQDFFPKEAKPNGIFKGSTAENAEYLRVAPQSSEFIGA
Procedure, shortened: as §1

[1] = IC50 WT (nM) 100 μM ATP, 100 μM ATP
[2] = Km ATP, read-out: IC50 WT (nM) Km ATP
[3] = IC50 L858R/C797S (nM) 100 μM ATP, 100 μM ATP
[4] = Km ATP, read-out: IC50 L858R/C797S (nM) Km ATP
[5] = IC50 del19/C797S (nM) 100 μM ATP, 100 μM ATP
[6] = Km ATP, read-out: IC50 del19/C797S (nM) Km ATP
[7] = IC50 del19/T790M/C797S (nM) 100 μM ATP, 100 μM ATP
[8] = Km ATP, read-out: IC50 del19/T790M/C797S (nM) Km ATP
[9] = IC50 L858R/T790M/C797S (nM) 100 μM ATP, 100 μM ATP
[10] = Km ATP, read-out: IC50 L858R/T790M/C797S (nM) Km ATP

Chain of EGFR wildtype (WT) (P00533 25-1210): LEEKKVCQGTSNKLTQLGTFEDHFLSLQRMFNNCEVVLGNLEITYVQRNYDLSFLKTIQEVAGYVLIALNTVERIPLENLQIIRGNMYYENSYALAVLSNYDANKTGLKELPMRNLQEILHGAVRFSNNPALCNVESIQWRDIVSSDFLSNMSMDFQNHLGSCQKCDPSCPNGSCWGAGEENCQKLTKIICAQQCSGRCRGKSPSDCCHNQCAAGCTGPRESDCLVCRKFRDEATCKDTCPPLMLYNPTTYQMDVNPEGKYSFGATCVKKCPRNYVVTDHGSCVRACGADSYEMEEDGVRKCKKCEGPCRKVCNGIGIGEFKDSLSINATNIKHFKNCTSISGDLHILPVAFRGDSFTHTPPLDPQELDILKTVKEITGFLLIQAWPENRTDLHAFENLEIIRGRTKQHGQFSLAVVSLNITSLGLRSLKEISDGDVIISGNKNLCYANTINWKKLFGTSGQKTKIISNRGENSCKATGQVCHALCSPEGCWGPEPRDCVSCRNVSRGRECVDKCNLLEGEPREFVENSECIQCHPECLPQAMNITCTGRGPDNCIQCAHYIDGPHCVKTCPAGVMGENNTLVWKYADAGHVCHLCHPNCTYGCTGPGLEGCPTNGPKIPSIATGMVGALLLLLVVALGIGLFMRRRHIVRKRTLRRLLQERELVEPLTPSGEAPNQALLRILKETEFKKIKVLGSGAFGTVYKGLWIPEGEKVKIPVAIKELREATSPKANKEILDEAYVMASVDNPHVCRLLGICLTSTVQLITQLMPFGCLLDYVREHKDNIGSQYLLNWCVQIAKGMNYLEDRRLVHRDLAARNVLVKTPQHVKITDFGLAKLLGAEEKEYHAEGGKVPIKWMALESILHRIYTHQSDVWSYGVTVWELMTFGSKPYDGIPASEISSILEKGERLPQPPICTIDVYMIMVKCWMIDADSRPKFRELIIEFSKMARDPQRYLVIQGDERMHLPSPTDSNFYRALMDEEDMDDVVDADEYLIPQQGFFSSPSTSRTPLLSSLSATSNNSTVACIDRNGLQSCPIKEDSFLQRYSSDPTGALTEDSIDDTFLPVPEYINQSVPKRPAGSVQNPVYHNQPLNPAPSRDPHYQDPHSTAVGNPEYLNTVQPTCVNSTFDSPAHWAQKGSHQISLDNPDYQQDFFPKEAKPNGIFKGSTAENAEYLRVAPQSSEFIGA

Row | Compound | IC50 (EGFR wildtype (WT); [1]) [nM] | IC50 (EGFR wildtype (WT); [2]) [nM] | IC50 (EGFR L858R/C797S; [3]) [nM] | IC50 (EGFR L858R/C797S; [4]) [nM] | IC50 (EGFR del19/C797S; [5]) [nM] | IC50 (EGFR del19/C797S; [6]) [nM] | IC50 (EGFR del19/T790M/C797S; [7]) [nM] | IC50 (EGFR del19/T790M/C797S; [8]) [nM] | IC50 (EGFR L858R/T790M/C797S; [9]) [nM] | IC50 (EGFR L858R/T790M/C797S; [10]) [nM] | IC50 (EGFR wildtype (WT); read-out: IC50 WT (nM) 100 μM ATP, 100 μM ATP) [nM] | IC50 (EGFR L858R/C797S; read-out: IC50 L858R/C797S (nM) 100 μM ATP, 100 μM ATP) [nM] | IC50 (EGFR del19/C797S; read-out: IC50 del19/C797S (nM) 100 μM ATP, 100 μM ATP) [nM] | IC50 (EGFR del19/T790M/C797S; read-out: IC50 del19/T790M/C797S (nM) 100 μM ATP, 100 μM ATP) [nM] | IC50 (EGFR L858R/T790M/C797S; read-out: IC50 L858R/T790M/C797S (nM) 100 μM ATP, 100 μM ATP) [nM]
1 | O=C1CC[C@]2(CC[C@H](Nc3cc(Nc4ccnc(-c5cnn(S(=O)(=O)C6CC6)c5)n4)ncc3-c3ccn(C(F)F)n3)CC2)N1 [Example 19, (5s,8s)-8-((2-((2-(1-(Cyclopropylsulfonyl)-1H-pyrazol-4-yl)pyrimidin-4-yl)amino)-5-(1-(difluoromethyl)-1H-pyrazol-3-yl)pyridin-4-yl)amino)-1-azaspiro[4.5]decan-2-one] | > 10000 | 10 | 3.5 | 0.7 | 0.7 | 0.5 | 0.3 | 0.3 | 0.5 | 0.1 |  |  |  |  | 
2 | C[C@]1(O)CC[C@@H](Nc2cc(Nc3ccnc(-c4cnn(S(=O)(=O)C5CC5)c4)n3)ncc2-n2ccc(C(F)(F)F)n2)CC1 [Example 167, (1s,4s)-4-((2-((2-(1-(Cyclopropylsulfonyl)-1H-pyrazol-4-yl)pyrimidin-4-yl)amino)-5-(3-(trifluoromethyl)-1H-pyrazol-1-yl)pyridin-4-yl)amino)-1-methylcyclohexan-1-ol] |  | 129 |  | 47.7 |  | 58.9 |  | 0.6 |  | 0.4 |  |  |  |  | 
3 | CC(C)(O)[C@H]1CC[C@@H](Nc2cc(Nc3ccnc(-c4cnn(S(=O)(=O)C5CC5)c4)n3)ncc2-c2csc(C(F)(F)F)n2)CC1 [Example 49, 2-((1s,4s)-4-((2-((2-(1-(Cyclopropylsulfonyl)-1H-pyrazol-4-yl)pyrimidin-4-yl)amino)-5-(2-(trifluoromethyl)thiazol-4-yl)pyridin-4-yl)amino)cyclohexyl)propan-2-ol] |  |  |  |  |  |  |  |  |  |  | > 10000 | 278 | 200 | 18.8 | 28.7
4 | C[C@]1(O)CC[C@@H](Nc2cc(Nc3ccnc(-c4cnc5c(c4)CCCO5)n3)ncc2-c2ccn(C(F)F)n2)CC1 [Example 176, (1s,4s)-4-((5-(1-(Difluoromethyl)-1H-pyrazol-3-yl)-2-((2-(3,4-dihydro-2H-pyrano[2,3-b]pyridin-6-yl)pyrimidin-4-yl)amino)pyridin-4-yl)amino)-1-methylcyclohexan-1-ol] |  | 752 |  | 10.4 |  | 264 |  | 0.3 |  | 0.04 |  |  |  |  | 
5 | O=S(=O)(C1CC1)n1cc(-c2nccc(Nc3cc(NC4CC5(CC(O)C5)C4)c(-c4ccn(C(F)F)n4)cn3)n2)cn1 (centres unmarked) [Example 103, 6-((2-((2-(1-(Cyclopropylsulfonyl)-1H-pyrazol-4-yl)pyrimidin-4-yl)amino)-5-(1-(difluoromethyl)-1H-pyrazol-3-yl)pyridin-4-yl)amino)spiro[3.3]heptan-2-ol] |  | 58.2 |  | 24 |  | 31 |  | 0.8 |  | 0.4 |  |  |  |  | 
6 | CN[C@H]1CC[C@@H](Oc2cc(Nc3ccnc(-c4cnn(S(=O)(=O)C5CC5)c4)n3)ncc2-c2ccn(C(F)F)n2)CC1 [Example 65, 2-(1-(Cyclopropylsulfonyl)-1H-pyrazol-4-yl)-N-(5-(1-(difluoromethyl)-1H-pyrazol-3-yl)-4-(((1s,4s)-4-(methylamino)cyclohexyl)oxy)pyridin-2-yl)pyrimidin-4-amine] | > 10000 | 149 | 622 | 33.5 | 54.5 | 33.5 | 1.2 | 0.8 | 4.2 | 0.6 |  |  |  |  | 
7 | O=S(=O)(C1CC1)n1cc(-c2nccc(Nc3cc(OC4CCC(O)CC4)c(-c4ccn(C(F)F)n4)cn3)n2)cn1 (centres unmarked) [Example 66, 4-((2-((2-(1-(Cyclopropylsulfonyl)-1H-pyrazol-4-yl)pyrimidin-4-yl)amino)-5-(1-(difluoromethyl)-1H-pyrazol-3-yl)pyridin-4-yl)oxy)cyclohexan-1-ol] | > 10000 | 38.9 | 80.1 | 5 | 4.5 | 7.7 | 0.4 | 0.3 | 2.7 | 0.3 |  |  |  |  | 
8 | CN[C@H]1CC[C@@H](Oc2cc(Nc3ccnc(-c4cnn(S(=O)(=O)C5CC5)c4)n3)ncc2-c2cnn(C(F)F)c2)CC1 [Example 69, 2-(1-(Cyclopropylsulfonyl)-1H-pyrazol-4-yl)-N-(5-(1-(difluoromethyl)-1H-pyrazol-4-yl)-4-(((1s,4s)-4-(methylamino)cyclohexyl)oxy)pyridin-2-yl)pyrimidin-4-amine] | > 10000 | 114 | 257 | 14.7 | 18.7 | 11.2 | 0.5 | 0.3 | 1.9 | 0.2 |  |  |  |  | 
9 | Cc1ncc(-c2cnc(Nc3ccnc(-c4cnn(S(=O)(=O)C5CC5)c4)n3)cc2N2CCC(O)CC2)s1 [Example 89, 1-(2-((2-(1-Cyclopropylsulfonylpyrazol-4-yl)pyrimidin-4-yl)amino)-5-(2-methylthiazol-5-yl)-4-pyridyl)piperidin-4-ol] | > 10000 |  | 232 |  | 82.5 |  | 1.3 |  | 3.8 |  |  |  |  |  | 

Results, then the compound that gave them:

Row | IC50 (EGFR wildtype (WT); [1]) [nM] | IC50 (EGFR wildtype (WT); [2]) [nM] | IC50 (EGFR L858R/C797S; [3]) [nM] | IC50 (EGFR L858R/C797S; [4]) [nM] | IC50 (EGFR del19/C797S; [5]) [nM] | IC50 (EGFR del19/C797S; [6]) [nM] | IC50 (EGFR del19/T790M/C797S; [7]) [nM] | IC50 (EGFR del19/T790M/C797S; [8]) [nM] | IC50 (EGFR L858R/T790M/C797S; [9]) [nM] | IC50 (EGFR L858R/T790M/C797S; [10]) [nM] | IC50 (EGFR wildtype (WT); read-out: IC50 WT (nM) 100 μM ATP, 100 μM ATP) [nM] | IC50 (EGFR L858R/C797S; read-out: IC50 L858R/C797S (nM) 100 μM ATP, 100 μM ATP) [nM] | IC50 (EGFR del19/C797S; read-out: IC50 del19/C797S (nM) 100 μM ATP, 100 μM ATP) [nM] | IC50 (EGFR del19/T790M/C797S; read-out: IC50 del19/T790M/C797S (nM) 100 μM ATP, 100 μM ATP) [nM] | IC50 (EGFR L858R/T790M/C797S; read-out: IC50 L858R/T790M/C797S (nM) 100 μM ATP, 100 μM ATP) [nM] | Compound
10 | 48.8 | 0.3 | 0.5 | 0.1 | 0.3 | 0.1 | 0.2 | 0.1 | 0.1 | 0.1 |  |  |  |  |  | CN(C)CCCn1ccc(-c2cnc(Nc3ccnc(-c4cnn(S(=O)(=O)C5CC5)c4)n3)cc2N[C@H]2CC[C@@H](CO)CC2)n1 [Example 296, ((1s,4s)-4-((2-((2-(1-(Cyclopropylsulfonyl)-1H-pyrazol-4-yl)pyrimidin-4-yl)amino)-5-(1-(3-(dimethylamino)propyl)-1H-pyrazol-3-yl)pyridin-4-yl)amino)cyclohexyl)methanol]
11 | 4670 | 9.4 | 33.8 | 3.3 | 6 | 4.8 | 0.5 | 0.2 | 0.5 | 0.2 |  |  |  |  |  | CN(C)C[C@]1(O)CC[C@@H](Nc2cc(Nc3ccnc(-c4cnn(S(=O)(=O)C5CC5)c4)n3)ncc2-c2ccn(C)n2)CC1 [Example 230, (1s,4s)-4-((2-((2-(1-(Cyclopropylsulfonyl)-1H-pyrazol-4-yl)pyrimidin-4-yl)amino)-5-(1-methyl-1H-pyrazol-3-yl)pyridin-4-yl)amino)-1-((dimethylamino)methyl)cyclohexan-1-ol]
12 |  | 0.3 |  | 0.1 |  | 0.4 |  | 0.6 |  | 0.3 |  |  |  |  |  | CN(C)CC[C@H]1CC[C@@H](Nc2cc(Nc3ccnc(-c4cnn(S(=O)(=O)C5CC5)c4)n3)ncc2-c2ccn(C(F)F)n2)CC1 [Example 211, N^2-(2-(1-(Cyclopropylsulfonyl)-1H-pyrazol-4-yl)pyrimidin-4-yl)-5-(1-(difluoromethyl)-1H-pyrazol-3-yl)-N^4-((1s,4s)-4-(2-(dimethylamino)ethyl)cyclohexyl)pyridine-2,4-diamine]
13 | 58.1 |  | 0.8 |  | 0.7 |  | 0.5 |  | 0.5 |  |  |  |  |  |  | Cn1ccc(-c2cnc(Nc3ccnc(-c4cnn(S(=O)(=O)C5CC5)c4)n3)cc2N[C@H]2CC[C@@H](O)CC2)n1 [Example 79, (1s,4s)-4-((2-((2-(1-(Cyclopropylsulfonyl)-1H-pyrazol-4-yl)pyrimidin-4-yl)amino)-5-(1-methyl-1H-pyrazol-3-yl)pyridin-4-yl)amino)cyclohexan-1-ol]
